Assay results: patent US20210093551A1, “Methods Of Use Of Oral Care Compositions Comprising Hops” (The Procter & Gamble Company, priority 2019, published 2021)

Test system: plaque biofilm grown from fresh pooled human saliva
Assay: in vitro plaque glycolysis model (iPGRM): acid production and glycolysis inhibition after treatment of 3-day biofilm
Type: cell-based, plaque microorganisms from human saliva
Procedure: Acid production and acid inhibition were determined with the in vitro plaque glycolysis model (iPGRM). The purpose of this technique is to provide a simple and quick method for determining if compounds have an influence on the metabolic pathways that plaque microorganisms utilize to produce toxins that adversely affect gingival health.
The in vitro plaque glycolysis model (iPGRM) is a technique in which plaque is grown from human saliva and treated with various agents to determine anti-glycolytic activity of treatments. When bacteria convert sugar into energy with the help of enzymes, acids are formed. These acids demineralize and damage the dental enamel. The purpose of this technique is to provide a simple and quick method for determining if treatment compounds have an inhibitory effect on the metabolic pathways that plaque microorganisms utilize for the production of acids or toxins and/or inhibit their growth. […]
[…] The pH of the media solutions was then measured to determine the amount of glycolysis inhibition relative to a negative control.
On Day 1, new glass rods (5 mm×90 mm) were polished approximately 25 mm from the un-tapered end on a lathe with silicon carbide paper of 240, 320, 400, and 600 grit used sequentially. […] After polishing, rods were stored until ready to run test. […]

[H]/N=C(\N/C(=N/[H])NCCCCCCNC(=N)NC(=N)Nc1ccc(Cl)cc1)Nc1ccc(Cl)cc1 [1% Chlorhexidine, Chlorhexidine]
Mean Acid Inhibition (%) Mean (2 min treatment (1:5 in water), glycolysis inhibition relative to negative control (Crest Cavity Protection)): 75.12% | Acid Production (ΔpH) Mean (2 min treatment with dentifrice slurry or diluted treatment in water (1:5), ΔpH versus blank vials): 0.4 ΔpH
